“Also recorded” adds a separate entry of the source. Numbered stars: 1 amine (or outer) side, 2 acyl side, 3 side chain; on linkers, the order of the positions; unused ones are H or OH. Bridge positions count the residues as written; N and C are the ends. Square brackets hold non-standard residues; d marks the D form. Peptide text beside a SMILES is read from it. I, II: the chains in the order shown. Actinocin(9to1) = Cc1c2oc3c(C)ccc(C(=O)[*:1])c3nc-2c(C(=O)[*:2])c(N)c1=O; NMeV = CN[C@H](C(=O)O)C(C)C; Sar = CNCC(=O)O
Columns and labels:
ERK1/2 = assay: Immunoblot analysis of ERK1/2 phosphorylation in ASM cells; type: cell-based, human; details: for effect on PGE2-induced phosphorylation of ERK1/2: PGE2 100 nM, 30 min; for effect on isoproterenol (β2AR agonist)-induced phosphorylation of ERK1/2: isoproterenol 10 μM, 20 min
Description: (§1) Detection of PDE4D5 mRNA transcripts: Total RNA was extracted from the cultured ASM cells using the TRIzol method (Invitrogen), and cDNAs were isolated by RT-PCR using the SuperScript First Strand Synthesis System kit from Invitrogen, with the following oligonucleotide primer sets (Integrated DNA Technologies): for PDE4D5, 5′-[…]-3′ (forward; SEQ ID NO: 2) and 5′-[…]-3′ (reverse; SEQ ID NO: 3); and for β-actin, 5′-[…]-3′ (forward; SEQ ID NO: 4) and 5′-[…]-3′ (reverse; SEQ ID NO: 5). The reaction volume was 20 μl and cycling conditions used were 35 cycles of 30 sec denaturation at 95° C., followed by 30 sec annealing at 60° C. and elongation at 72° C. for 30 sec. Ex-Tag (Takara Biotechnology) was used as DNA polymerase. […] Following protein extraction and the addition of gel-loading buffer, the extracts were loaded on a 10% SDS-PAGE gel for immunoblotting after transfer to a PVDF membrane. The membranes were then incubated overnight with monoclonal mouse anti-human primary antibodies directed against phospho-CREB and -ATF1, phospho-ERK1/2, or α-actin, and levels were detected by ECL after a 1-hr incubation with a 1:2,000 dilution of HRP-conjugated rabbit anti-mouse secondary antibody, followed by exposure to autoradiography film. The protein band intensities were quantified by densitometry. siRNA-mediated knockdown of PKA: ASM cells were seeded into 6-well plates and, at ˜40% confluency, the medium was replaced with the reduced serum-containing medium, Opti-MEM (Invitrogen). The cells were then transfected twice during a 24-hr interval with two pools of three siRNA duplexes, each pool targeted against the human PKAα or PKAγ catalytic subunits (Santa Cruz Biotechnology; sc-36240 and sc-36236, respectively), or with a non-targeted control (scrambled) siRNA duplex, using Oligofectamine (Invitrogen) as the transfection agent. The pools of siRNAs were applied to each well at a final concentration of 100 nM for each siRNA preparation. […] Transfection of ASM cells with adeno-βARK-ct: Adenovirus (adeno)-βARK-ct, an adenovirus vector encoding the βARK1 carboxyl-terminal domain which blocks Gβγ signaling (25,26), and adeno-β-gal, an adenovirus vector expressing lacZ as a negative control, were constructed using the AdenoX adenovirus construction kit (BD-Clontech). Recombinant plaques were isolated and propagated in HEK293 cells (Invitrogen), with viral purification using the cesium chloride gradient method, and viral titer detected by plaque assay. The ASM cells were transfected with either of the adenoviral vectors at a multiplicity of infection (MOI) of 100, and experiments were conducted at 24 hr following adenoviral tranfections. Pharmacodynamic studies of constrictor and relaxation responsiveness in rabbit ASM tissues: Following initial sedation and subsequent general anesthesia with intramuscular injections of xylazine (10 mg/kg) and ketamine (50 mg/kg), respectively, rabbits were sacrificed with an intravenously administered overdose of sodium pentobarbital (100 mg/kg). As described previously (16), the tracheae were excised via open thoracotomy, the loose connective tissue and epithelium were scraped and removed, and the tracheae were divided into 8 ring segments, each of 6-8 mm in length. […] After these incubations, the tissues were placed in organ baths containing modified Krebs-Ringer solution aerated with 5% CO2 in oxygen (pH of 7.35-7.40), and attached to force transducers to continuously monitor isometric tension. […] The constrictor and relaxation dose-response curves were analyzed with respect to each tissue's maximal isometric contractile force (Tmax) to ACh and maximal relaxation response (Rmax) to isoproterenol from the initial level of active cholinergic contraction. Statistical analyses: Results are expressed as mean±SE values. Comparisons between groups were made using the Student's t-test (two-tailed) or ANOVA with Tukey's post-test analysis, where appropriate.

human ASM cells [1] = assay: Assay of cAMP PDE activity in ASM cell lysates; type: cell-based
Method: Assay of cAMP PDE activity: Levels of cAMP PDE activity were assayed in ASM cell lysates using a colorimetric, non-radioactive enzymatic assay kit from Biomol, as per the manufacture's protocol. PDE activity was determined following exposure of ASM cells for 24 hr to either vehicle alone (control), PGE2 (100 μM), or forskolin (100 μM) in the absence and presence of pretreatment with rolipram (10 μM), cycloheximide (100 μM), actinomycin D (4 μM), or H89 (10 μM).
In each case, the measured levels of PDE activity were standardized to the protein content in the cell extracts.

PDE4D5 mRNA = assay: Detection of PDE4D5 mRNA transcripts by RT-PCR in ASM cells; type: cell-based, human; details: 6 hr; for effect of pretreatment on PGE2-induced upregulated PDE4D5 mRNA expression: PGE2 100 nM; for effect of pretreatment on β2AR agonist (isoproterenol)-induced upregulated PDE4D5 mRNA expression: isoproterenol 10 μM
Description: as §1

CREB/ATF1 = assay: Immunoblot analysis of CREB/ATF1 phosphorylation in ASM cells; type: cell-based, human; details: PGE2 100 nM, 30 min
Description: as §1

human ASM cells [2] = assay: Assay of cAMP PDE activity in ASM cell lysates; type: cell-based; remark: listed apart in the source

With `COC(=O)[C@H](CC(C)C)NC(=O)c1ccc(NC[C@@H](N)CS)cc1-c1cccc2ccccc12` [GGTI-298] the “effect on PGE2-induced phosphorylation of ERK1/2” value (ERK1/2) was “did not exhibit attenuated; also recorded: no effect” and the “effect on isoproterenol (β2AR agonist)-induced phosphorylation of ERK1/2” value (ERK1/2) was “did not exhibit attenuated; also recorded: no effect”.
In the case of `C=C[C@@]1(C)CC(=O)[C@]2(O)[C@@]3(C)[C@@H](O)CCC(C)(C)[C@@H]3[C@H](O)[C@H](OC(C)=O)[C@@]2(C)O1` [forskolin], the “PDE activity, fold above control” value (human ASM cells [1]; cells incubated 24 hr with the agent (PGE2 or forskolin 100 μM; salmeterol or isoproterenol 10 μM)) is reported as 4.01 fold.
In the case of `Oc1ccc(-c2nc(-c3ccncc3)c(-c3ccc(F)cc3)[nH]2)cc1` [SB202190], the “effect of pretreatment on PGE2-induced upregulated PDE4D5 mRNA expression” value (PDE4D5 mRNA) is reported as “neither the p38 MAPK nor JNK inhibitor (lanes 5 and 6, respectively) had an attenuating effect”, the “effect of pretreatment on β2AR agonist (isoproterenol)-induced upregulated PDE4D5 mRNA expression” value (PDE4D5 mRNA) is reported as “unaffected; also recorded: no effect” and the “effect on PGE2-induced phosphorylation of ERK1/2” value (ERK1/2) is reported as “neither PGE2-induced phosphorylation of ERK1/2 nor CREB/ATF was affected”. The “effect on PGE2-induced phosphorylation of CREB/ATF1” value (CREB/ATF1) was “neither PGE2-induced phosphorylation of ERK1/2 nor CREB/ATF was affected”.
In the case of `CN(C)S(=O)(=O)c1ccc2c(c1)/C(=C/c1cc3c([nH]1)CCCC3)C(=O)N2` [SU6656], the “effect of pretreatment on PGE2-induced upregulated PDE4D5 mRNA expression” value (PDE4D5 mRNA) is reported as “ablated”, the “effect of pretreatment on PGE2-induced upregulated PDE4D5 mRNA expression” value (PDE4D5 mRNA; listed as Src inhibitor) is reported as “markedly inhibited” and the “effect of pretreatment on β2AR agonist (isoproterenol)-induced upregulated PDE4D5 mRNA expression” value (PDE4D5 mRNA) is reported as “prevented; also recorded: ablated”. For the same compound, the “effect on PGE2-induced phosphorylation of ERK1/2” value (ERK1/2) was “largely prevented; also recorded: ablated” and the “effect on PGE2-induced phosphorylation of CREB/ATF1” value (CREB/ATF1) was “largely prevented; also recorded: ablated”.
In the case of `Cc1c2oc3c(C)ccc(C(=O)N[C@@H]4C(=O)N[C@H](C(C)C)C(=O)N5CCC[C@H]5C(=O)N(C)CC(=O)N(C)[C@@H](C(C)C)C(=O)O[C@@H]4C)c3nc-2c(C(=O)N[C@@H]2C(=O)N[C@H](C(C)C)C(=O)N3CCC[C@H]3C(=O)N(C)CC(=O)N(C)[C@@H](C(C)C)C(=O)O[C@@H]2C)c(N)c1=O` [actinomycin D] (I: T[dV]P[Sar][NMeV] / II: T[dV]P[Sar][NMeV]; ester I:1-I:C, II:1-II:C; linker I:N-II:N via Actinocin(9to1)), the “effect of pretreatment on PGE2- and forskolin-induced increases in PDE activity” value (human ASM cells [2]; PGE2 or forskolin x 24 hr (100 μM in text, 100 nM in legends)) is reported as “completely ablated”, the “effect of pretreatment on salmeterol- and isoproterenol-induced increase in PDE activity” value (human ASM cells [2]; salmeterol or isoproterenol 10 μM x 24 hr) is reported as “completely ablated” and the “effect of the agent alone on basal PDE activity” value (human ASM cells [1]; no cAMP-elevating agent) is reported as “neither actinomycin D nor cycloheximide alone significantly affected”.
`O=C1Nc2ccc(I)cc2/C1=C/c1cc(Br)c(O)c(Br)c1` [GW5074] was tested, and the “effect on PGE2-induced phosphorylation of ERK1/2” value (ERK1/2) was “completely ablated; also recorded: prevents” and the “effect on isoproterenol (β2AR agonist)-induced phosphorylation of ERK1/2” value (ERK1/2) was “completely abrogated; also recorded: prevents”.
